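1) Cells in 96-well plates. 2) Compound, 48 h, 5 concentrations. 3) Linear interpolation between surrounding doses. 4) Unreached endpoint = highest concentration. TGI: concentration producing complete growth inhibition.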
Tests used:
Test in all cases: NCI-60 cell line screen, 48 h
MCF7 breast = test system: MCF7 breast
HCC-2998 colon = test system: HCC-2998 colon
SK-MEL-5 melanoma = test system: SK-MEL-5 melanoma
HOP-92 NSCLC = test system: HOP-92 NSCLC
HOP-62 NSCLC = test system: HOP-62 NSCLC
SW-620 colon = test system: SW-620 colon
MALME-3M melanoma = test system: MALME-3M melanoma
SK-MEL-28 melanoma = test system: SK-MEL-28 melanoma
SR leukemia = test system: SR leukemia
UACC-257 melanoma = test system: UACC-257 melanoma
PC-3 prostate = test system: PC-3 prostate
UO-31 renal = test system: UO-31 renal
SNB-75 CNS = test system: SNB-75 CNS
CCRF-CEM leukemia = test system: CCRF-CEM leukemia
SK-MEL-2 melanoma = test system: SK-MEL-2 melanoma
UACC-62 melanoma = test system: UACC-62 melanoma
DU-145 prostate = test system: DU-145 prostate
IGROV1 ovarian = test system: IGROV1 ovarian
SF-295 CNS = test system: SF-295 CNS
SNB-19 CNS = test system: SNB-19 CNS
MOLT-4 leukemia = test system: MOLT-4 leukemia
HS 578T breast = test system: HS 578T breast
COLO 205 colon = test system: COLO 205 colon
T-47D breast = test system: T-47D breast
SN12C renal = test system: SN12C renal
OVCAR-5 ovarian = test system: OVCAR-5 ovarian
M14 melanoma = test system: M14 melanoma
ACHN renal = test system: ACHN renal
SF-539 CNS = test system: SF-539 CNS
MDA-N = test system: MDA-N
NCI-H460 lung = test system: NCI-H460 lung
NCI-H522 lung = test system: NCI-H522 lung
CAKI-1 renal = test system: CAKI-1 renal
RXF 393 renal = test system: RXF 393 renal
MDA-MB-435 = test system: MDA-MB-435
EKVX NSCLC = test system: EKVX NSCLC
LOX IMVI melanoma = test system: LOX IMVI melanoma
HCT-116 colon = test system: HCT-116 colon
OVCAR-3 ovarian = test system: OVCAR-3 ovarian
KM12 colon = test system: KM12 colon
NCI-H23 lung = test system: NCI-H23 lung
SF-268 CNS = test system: SF-268 CNS
OVCAR-4 ovarian = test system: OVCAR-4 ovarian
A549 NSCLC = test system: A549 NSCLC
HL-60(TB) leukemia = test system: HL-60(TB) leukemia
U251 CNS = test system: U251 CNS
MDA-MB-231 breast = test system: MDA-MB-231 breast
RPMI-8226 leukemia = test system: RPMI-8226 leukemia
SK-OV-3 ovarian = test system: SK-OV-3 ovarian
TK-10 renal = test system: TK-10 renal
HCT-15 colon = test system: HCT-15 colon
786-0 renal = test system: 786-0 renal
A498 renal = test system: A498 renal
K-562 leukemia = test system: K-562 leukemia

Measured: TGI

CCOC(=O)C(=CNC(=S)c1ccncc1)C(=O)OCC
> 100 µM: all assays above
